Laboratory results taken from ChEMBL document CHEMBL1201862, “PubChem BioAssay data set” (2004).
Activity calls are given as the source filed them.

Experiments:
Type in all cases: functional
[1] = molecular target: Delta-type opioid receptor (Homo sapiens, UniProt P41143); assay: Counterscreen for agonists of heterodimerization of the mu 1 (OPRM1) and delta 1 (OPRD1) opioid receptors: Luminescence-based cell-based high throughput dose response assay to identify agonists of OPRD1 homodimerization. [Related pubchem assays (depositor defined):AID504326, AID504355, AID504692, AID504904, AID504905]
Mu-type opioid receptor = Mu-type opioid receptor (Homo sapiens, UniProt P35372); assay: Counterscreen for agonists of heterodimerization of the mu 1 (OPRM1) and delta 1 (OPRD1) opioid receptors: Luminescence-based cell-based high throughput dose response assay to identify agonists of OPRM1 homodimerization.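 Also: U2OS cells expressing OPRM1 and beta-arrestin as split beta-galactosidase partners.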
[2] = molecular target: 5-hydroxytryptamine receptor 5A (Homo sapiens, UniProt P47898); assay: Counterscreen for agonists of OPRM1-OPRD1 heterodimerization: luminescence-based cell-based high throughput dose response assay to identify agonists of 5-hydroxytryptamine (serotonin) 5A receptor (HTR5A). [Related pubchem assays (depositor defined):AID504326, AID504355, AID504692, AID504904, AID504905]
[3] = (§1) Counterscreen for antagonists of the orexin 1 receptor (OX1R; HCRTR1): Fluorescence-based cell-based high throughput dose response assay to identify antagonists of the parental CHO cell line. [Related pubchem assays (depositor defined):AID434989, AID435008, AID463079, AID485270, AID492963, AID492964, AID492965, AID493232, AID504699, AID504701]
Orexin receptor type 2 [4] = molecular target: T1, Orexin receptor type 2 (Homo sapiens, UniProt O43614); assay: Counterscreen assay for antagonists of the orexin 1 receptor (OX1R; HCRTR1): Fluorescence-based cell-based dose response assay for antagonists of the orexin 2 receptor (OX2R; HCRTR2), run by assay provider.
T1 sequence (O43614 whole entry): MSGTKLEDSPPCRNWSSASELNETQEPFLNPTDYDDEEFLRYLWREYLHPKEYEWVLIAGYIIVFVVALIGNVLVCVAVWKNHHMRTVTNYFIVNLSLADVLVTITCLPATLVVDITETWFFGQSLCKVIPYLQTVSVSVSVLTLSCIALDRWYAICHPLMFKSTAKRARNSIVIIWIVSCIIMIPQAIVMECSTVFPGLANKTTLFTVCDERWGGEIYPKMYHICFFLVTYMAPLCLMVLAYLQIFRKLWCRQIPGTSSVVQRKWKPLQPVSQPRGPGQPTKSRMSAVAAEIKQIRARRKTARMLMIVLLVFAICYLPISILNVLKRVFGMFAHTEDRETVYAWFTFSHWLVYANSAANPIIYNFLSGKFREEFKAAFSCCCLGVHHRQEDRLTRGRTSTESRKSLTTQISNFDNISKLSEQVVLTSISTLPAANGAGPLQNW

[5] = molecular target: T2, Orexin/Hypocretin receptor type 1 (Homo sapiens, UniProt O43613); assay: Homogeneous Time Resolved Fluorescence (HTRF)-based cell-based high throughput dose response assay for antagonists of the orexin 1 receptor (OX1R; HCRTR1). [Related pubchem assays (depositor defined):AID434989, AID435008, AID463079, AID485270, AID492963, AID492964, AID492965, AID493232, AID504717, AID504718]
T2 sequence (O43613 whole entry): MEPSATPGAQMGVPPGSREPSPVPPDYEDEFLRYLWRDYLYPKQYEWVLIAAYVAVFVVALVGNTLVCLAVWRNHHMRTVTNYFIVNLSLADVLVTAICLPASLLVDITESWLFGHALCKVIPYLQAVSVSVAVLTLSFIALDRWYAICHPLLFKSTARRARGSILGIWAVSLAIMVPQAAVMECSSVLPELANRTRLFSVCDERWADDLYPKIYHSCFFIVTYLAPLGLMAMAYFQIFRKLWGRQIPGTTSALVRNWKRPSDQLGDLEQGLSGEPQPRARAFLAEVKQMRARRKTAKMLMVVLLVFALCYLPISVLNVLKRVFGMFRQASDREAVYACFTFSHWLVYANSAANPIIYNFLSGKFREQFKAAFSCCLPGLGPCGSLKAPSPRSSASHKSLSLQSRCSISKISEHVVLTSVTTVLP

Orexin receptor type 2 [6] = molecular target: T1, Orexin receptor type 2; assay: Counterscreen assay for antagonists of the orexin 1 receptor (OX1R; HCRTR1): Homogeneous Time Resolved Fluorescence (HTRF)-based cell-based dose response assay for antagonists of the orexin 2 receptor (OX2R; HCRTR2), run by assay provider.
[7] = molecular target: T2, Orexin/Hypocretin receptor type 1; assay: Fluorescence-based cell-based high throughput dose response assay for antagonists of the orexin 1 receptor (OX1R; HCRTR1). [Related pubchem assays (depositor defined):AID434989, AID435008, AID463079, AID485270, AID492963, AID492964, AID492965, AID493232, AID504717, AID504718]
CHO-K1 = assay: as §1, with “Homogeneous time resolved fluorescence (HTRF)-based” for “Fluorescence-based”, “cell-based” for “cell-based high throughput”, “CHO-K1” for “CHO”; details: Cricetulus griseus;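 also: potency for inhibition of ATP-stimulated IP1 production as antagonists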
SUMO E1/E2 = SUMO E1/E2 (Homo sapiens, UniProt P63279+Q9UBE0+Q9UBT2); assay: SAR analysis of SUMOylation using HTRF in an in-Vitro dose response assay. [Related pubchem assays (depositor defined):AID2006, AID2011, AID2018, AID2069, AID2658]
[8] = molecular target: T3, Voltage-gated N-type calcium channel alpha-1B subunit/Amyloid beta A4 precursor protein-binding family A member 1 (Homo sapiens, UniProt Q00975+Q02410); assay: disruptors of Mint-PDZ/N-type channel peptide interaction – biochemical, HTRF, set 2, SAR follow-up (AID 434980)
[9] = molecular target: T3, Voltage-gated N-type calcium channel alpha-1B subunit/Amyloid beta A4 precursor protein-binding family A member 1; assay: disruptors of Mint-PDZ/N-type channel peptide interaction – biochemical, HTRF, SAR follow-up (AID 2489)
[10] = molecular target: Intestinal-type alkaline phosphatase (Mus musculus, UniProt P24822); assay: PubChem AID 488785
[11] = molecular target: T4, Alkaline phosphatase, tissue-nonspecific isozyme (Homo sapiens, UniProt P05186); assay: TNAP enzyme inhibition by screening hits, dose response, selectivity assay for mouse IAP inhibitor project, biochemical, human TNAP, uHTS hits (AID 488906)
T4 sequence (P05186 whole entry): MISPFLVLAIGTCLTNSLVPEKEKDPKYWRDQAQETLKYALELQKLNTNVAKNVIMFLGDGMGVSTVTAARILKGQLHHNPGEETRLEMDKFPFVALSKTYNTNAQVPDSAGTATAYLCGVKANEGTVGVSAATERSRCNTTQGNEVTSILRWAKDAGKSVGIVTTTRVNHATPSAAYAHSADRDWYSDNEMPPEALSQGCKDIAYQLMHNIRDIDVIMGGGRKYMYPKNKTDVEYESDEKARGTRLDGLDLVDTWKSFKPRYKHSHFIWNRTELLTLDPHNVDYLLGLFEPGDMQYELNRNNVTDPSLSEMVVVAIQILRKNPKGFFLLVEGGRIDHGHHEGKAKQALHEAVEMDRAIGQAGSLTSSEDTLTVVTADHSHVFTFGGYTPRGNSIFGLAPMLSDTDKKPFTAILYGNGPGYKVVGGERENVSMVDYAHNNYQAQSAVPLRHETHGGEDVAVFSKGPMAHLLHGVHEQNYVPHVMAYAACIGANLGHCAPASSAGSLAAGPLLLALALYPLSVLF

[12] = molecular target: Intestinal-type alkaline phosphatase (Homo sapiens, UniProt P09923); assay: inhibition of human intestinal alkaline phosphatase – biochemical, dose response (AID 488876)
Phospholipase D1 = Phospholipase D1 (Homo sapiens, UniProt Q13393); assay: PLD1 inhibitor potency in cells, dose response (AID 602151);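 also: cellular PLD1 assay in Calu-1 cells stimulated with PMA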
Phospholipase D2 = Phospholipase D2 (Homo sapiens, UniProt O14939); assay: PLD2 inhibitor potency in cells, dose response (AID 602147);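 also: cellular assay in HEK293 cells overexpressing GFP-tagged PLD2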
[13] = microbe, parasite or virus in culture; details: Mycobacterium tuberculosis
Beta-galactosidase = Beta-galactosidase (Escherichia coli, UniProt Q8VNN2); assay: PubChem AID 485352
[14] = molecular target: Type-1 angiotensin II receptor (Homo sapiens, UniProt P30556); assay: AT1 receptor antagonists, dose response, selectivity assay for APJ receptor antagonist project, cell-based, uHTS hits (AID 463214);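 also: antagonist potency against angiotensin II stimulated AT1 response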

T3 sequence (Q00975 whole entry): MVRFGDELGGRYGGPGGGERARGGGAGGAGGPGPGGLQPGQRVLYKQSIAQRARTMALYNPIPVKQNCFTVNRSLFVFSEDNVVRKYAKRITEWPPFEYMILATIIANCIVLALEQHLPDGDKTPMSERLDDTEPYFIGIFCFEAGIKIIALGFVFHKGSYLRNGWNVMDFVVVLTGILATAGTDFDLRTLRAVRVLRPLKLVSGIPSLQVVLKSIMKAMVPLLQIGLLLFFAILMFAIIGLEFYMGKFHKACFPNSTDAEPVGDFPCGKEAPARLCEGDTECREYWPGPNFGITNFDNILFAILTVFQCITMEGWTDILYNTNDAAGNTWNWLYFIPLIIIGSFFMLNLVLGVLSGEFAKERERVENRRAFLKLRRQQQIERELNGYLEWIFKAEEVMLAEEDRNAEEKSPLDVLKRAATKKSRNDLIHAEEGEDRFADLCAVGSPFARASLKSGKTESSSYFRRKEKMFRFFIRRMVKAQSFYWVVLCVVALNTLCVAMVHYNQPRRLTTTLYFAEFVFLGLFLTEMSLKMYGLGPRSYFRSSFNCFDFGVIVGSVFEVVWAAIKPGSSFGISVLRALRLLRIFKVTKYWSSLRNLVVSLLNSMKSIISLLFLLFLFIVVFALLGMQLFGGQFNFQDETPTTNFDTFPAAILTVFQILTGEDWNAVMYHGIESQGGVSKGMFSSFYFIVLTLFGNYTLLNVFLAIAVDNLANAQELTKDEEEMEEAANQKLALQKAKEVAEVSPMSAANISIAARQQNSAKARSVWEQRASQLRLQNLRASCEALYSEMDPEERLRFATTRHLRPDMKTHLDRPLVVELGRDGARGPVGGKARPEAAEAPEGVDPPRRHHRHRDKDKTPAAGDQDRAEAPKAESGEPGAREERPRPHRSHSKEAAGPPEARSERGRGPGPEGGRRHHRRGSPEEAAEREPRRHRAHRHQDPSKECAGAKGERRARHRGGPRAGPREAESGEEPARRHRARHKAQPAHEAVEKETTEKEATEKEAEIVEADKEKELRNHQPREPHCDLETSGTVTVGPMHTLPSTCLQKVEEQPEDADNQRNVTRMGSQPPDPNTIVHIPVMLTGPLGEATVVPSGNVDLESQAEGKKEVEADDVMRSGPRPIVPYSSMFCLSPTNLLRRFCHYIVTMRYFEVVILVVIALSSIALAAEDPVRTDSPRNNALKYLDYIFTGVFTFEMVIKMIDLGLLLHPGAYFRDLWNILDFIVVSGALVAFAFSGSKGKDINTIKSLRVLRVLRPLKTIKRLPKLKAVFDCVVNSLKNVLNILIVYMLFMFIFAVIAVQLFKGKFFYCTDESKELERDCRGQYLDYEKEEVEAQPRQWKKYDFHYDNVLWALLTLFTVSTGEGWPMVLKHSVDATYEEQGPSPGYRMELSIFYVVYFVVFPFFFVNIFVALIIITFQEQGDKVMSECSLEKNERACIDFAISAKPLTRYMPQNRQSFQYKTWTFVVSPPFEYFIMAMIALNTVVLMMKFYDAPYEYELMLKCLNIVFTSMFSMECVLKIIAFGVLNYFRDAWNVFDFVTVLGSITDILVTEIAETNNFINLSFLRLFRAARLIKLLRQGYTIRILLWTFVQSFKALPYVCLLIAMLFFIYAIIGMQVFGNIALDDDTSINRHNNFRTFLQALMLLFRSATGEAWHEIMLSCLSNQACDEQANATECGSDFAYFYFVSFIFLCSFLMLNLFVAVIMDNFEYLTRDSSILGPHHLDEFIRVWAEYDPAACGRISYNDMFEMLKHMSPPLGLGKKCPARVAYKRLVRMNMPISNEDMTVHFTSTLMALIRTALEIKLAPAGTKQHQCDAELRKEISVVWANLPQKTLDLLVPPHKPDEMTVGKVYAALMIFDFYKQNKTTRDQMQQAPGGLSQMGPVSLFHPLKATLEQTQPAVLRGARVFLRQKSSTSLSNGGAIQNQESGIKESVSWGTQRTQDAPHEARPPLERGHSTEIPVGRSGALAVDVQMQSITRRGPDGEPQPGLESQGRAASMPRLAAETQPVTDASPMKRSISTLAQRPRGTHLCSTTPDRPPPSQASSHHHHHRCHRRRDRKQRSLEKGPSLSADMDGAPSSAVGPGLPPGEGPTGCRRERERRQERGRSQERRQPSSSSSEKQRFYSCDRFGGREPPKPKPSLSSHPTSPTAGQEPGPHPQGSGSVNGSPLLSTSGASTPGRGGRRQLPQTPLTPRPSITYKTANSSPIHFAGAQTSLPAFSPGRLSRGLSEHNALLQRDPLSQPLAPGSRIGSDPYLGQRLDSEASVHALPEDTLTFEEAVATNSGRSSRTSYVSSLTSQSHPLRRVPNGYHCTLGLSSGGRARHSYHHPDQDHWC
T3 sequence (Q02410 whole entry): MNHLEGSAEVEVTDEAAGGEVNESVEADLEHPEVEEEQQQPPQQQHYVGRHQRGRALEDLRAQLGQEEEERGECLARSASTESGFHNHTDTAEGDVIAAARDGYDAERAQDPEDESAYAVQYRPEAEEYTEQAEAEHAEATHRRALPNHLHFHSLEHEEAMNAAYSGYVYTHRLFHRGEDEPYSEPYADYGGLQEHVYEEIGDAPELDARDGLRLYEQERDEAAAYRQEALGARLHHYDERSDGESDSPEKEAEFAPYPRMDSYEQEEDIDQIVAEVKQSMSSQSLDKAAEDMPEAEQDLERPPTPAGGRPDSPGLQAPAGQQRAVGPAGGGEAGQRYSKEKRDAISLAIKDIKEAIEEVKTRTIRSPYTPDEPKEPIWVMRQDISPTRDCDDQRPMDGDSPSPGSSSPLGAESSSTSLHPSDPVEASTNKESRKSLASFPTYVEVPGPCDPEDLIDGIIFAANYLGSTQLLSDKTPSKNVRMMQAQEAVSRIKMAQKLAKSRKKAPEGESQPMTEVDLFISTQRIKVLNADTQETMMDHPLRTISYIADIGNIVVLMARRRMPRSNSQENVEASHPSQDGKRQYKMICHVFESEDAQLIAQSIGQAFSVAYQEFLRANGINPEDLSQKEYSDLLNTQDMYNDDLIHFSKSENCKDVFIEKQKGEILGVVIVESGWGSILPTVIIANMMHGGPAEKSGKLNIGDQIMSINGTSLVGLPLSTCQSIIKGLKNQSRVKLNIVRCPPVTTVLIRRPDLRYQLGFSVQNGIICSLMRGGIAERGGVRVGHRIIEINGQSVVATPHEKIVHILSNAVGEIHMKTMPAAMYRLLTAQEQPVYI
Sequence of Phospholipase D1 (Q13393 whole entry): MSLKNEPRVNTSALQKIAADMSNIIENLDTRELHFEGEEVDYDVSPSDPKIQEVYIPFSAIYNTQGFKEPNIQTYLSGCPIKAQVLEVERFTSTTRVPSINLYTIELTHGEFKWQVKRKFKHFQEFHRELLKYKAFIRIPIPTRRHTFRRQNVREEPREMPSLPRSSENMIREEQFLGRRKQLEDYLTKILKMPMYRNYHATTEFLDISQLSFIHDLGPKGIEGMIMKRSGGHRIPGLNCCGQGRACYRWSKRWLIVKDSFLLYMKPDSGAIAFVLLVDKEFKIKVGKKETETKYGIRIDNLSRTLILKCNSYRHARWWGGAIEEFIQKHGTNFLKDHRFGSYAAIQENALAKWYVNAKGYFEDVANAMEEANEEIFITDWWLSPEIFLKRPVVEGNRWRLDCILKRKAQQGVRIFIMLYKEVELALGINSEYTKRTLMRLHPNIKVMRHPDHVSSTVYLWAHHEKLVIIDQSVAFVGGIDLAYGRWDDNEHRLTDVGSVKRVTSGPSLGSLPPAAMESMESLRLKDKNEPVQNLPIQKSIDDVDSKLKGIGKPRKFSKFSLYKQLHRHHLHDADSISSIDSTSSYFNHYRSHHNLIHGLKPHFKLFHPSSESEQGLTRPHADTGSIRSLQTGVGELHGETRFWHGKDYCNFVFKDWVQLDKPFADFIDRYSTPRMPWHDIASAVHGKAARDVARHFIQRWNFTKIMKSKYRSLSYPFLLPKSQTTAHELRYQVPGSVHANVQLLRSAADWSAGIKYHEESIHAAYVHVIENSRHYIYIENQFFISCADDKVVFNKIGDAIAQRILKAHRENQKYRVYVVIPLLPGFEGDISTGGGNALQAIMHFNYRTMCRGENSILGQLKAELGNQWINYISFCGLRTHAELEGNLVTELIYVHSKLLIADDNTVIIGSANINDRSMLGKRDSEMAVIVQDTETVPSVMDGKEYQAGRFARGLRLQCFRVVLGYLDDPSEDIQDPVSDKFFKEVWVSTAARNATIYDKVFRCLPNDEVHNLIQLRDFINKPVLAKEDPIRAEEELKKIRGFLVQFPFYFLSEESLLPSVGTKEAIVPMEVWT
Sequence of Intestinal-type alkaline phosphatase (Homo sapiens, UniProt P09923) (P09923 whole entry): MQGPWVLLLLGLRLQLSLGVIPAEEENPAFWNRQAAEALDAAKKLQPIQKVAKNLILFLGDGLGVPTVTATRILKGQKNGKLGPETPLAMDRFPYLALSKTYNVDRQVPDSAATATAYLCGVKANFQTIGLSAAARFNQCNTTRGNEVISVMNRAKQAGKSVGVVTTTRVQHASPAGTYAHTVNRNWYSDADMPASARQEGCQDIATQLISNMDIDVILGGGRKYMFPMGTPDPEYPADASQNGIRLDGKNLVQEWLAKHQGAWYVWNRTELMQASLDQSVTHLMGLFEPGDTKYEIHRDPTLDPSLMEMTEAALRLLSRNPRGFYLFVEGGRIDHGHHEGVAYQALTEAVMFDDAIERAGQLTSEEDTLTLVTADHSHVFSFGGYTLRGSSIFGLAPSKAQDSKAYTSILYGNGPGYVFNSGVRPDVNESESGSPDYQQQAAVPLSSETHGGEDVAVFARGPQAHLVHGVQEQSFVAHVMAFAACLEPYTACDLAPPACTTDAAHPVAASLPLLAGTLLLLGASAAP

For `CC(CC(=O)N(CCC1=CCCCC1)c1c(N)n(Cc2ccccc2)c(=O)[nH]c1=O)c1ccccc1` (stereo not given), the EC50 [1] was > 92.5 µM (inactive), the EC50 (Mu-type opioid receptor) was > 92.5 µM (inactive) and the EC50 [2] was > 92.5 µM (inactive).
In the case of `Cn1c2ccccc2c(=O)c2cc(C#Cc3cccc(N)c3)ccc21`, the IC50 [3] is reported as > 49.8 µM (inactive), the IC50 (Orexin receptor type 2 [4]) is reported as > 88.8 µM (inactive) and the IC50 [5] is reported as 1.5 µM (active). The IC50 (Orexin receptor type 2 [6]) was 0.07 µM (active), the IC50 [7] was 1.69 µM (active) and the IC50 (CHO-K1) was > 66.3 µM (inactive).
In the case of `COc1ccccc1CCNC(=O)COC(=O)c1cc(-c2ccco2)nc2ccccc12`, the IC50 (SUMO E1/E2) is reported as 25.3 µM (active), the IC50 [8] is reported as 17.4 µM (active) and the IC50 [9] is reported as 28.5 µM (active).
With `COc1cccc(NC(=O)CN(C)S(=O)(=O)c2ccc3nc(O)oc3c2)c1` the IC50 [10] was 4.03 µM (active), the IC50 [11] was > 100 µM (inactive) and the IC50 [12] was > 100 µM (inactive).
In the case of `COc1ccc(CNC(=O)c2cc(-c3ccco3)nc3ccccc23)cc1`, the IC50 (SUMO E1/E2) is reported as 2.61 µM (active), the IC50 [8] is reported as 20.3 µM (active) and the IC50 [9] is reported as > 56.8 µM (inactive).
With `Cc1ccc(C(=O)N[C@@H](C)CN2CCC(n3c(=O)[nH]c4cc(Br)ccc43)CC2)cc1` the IC50 (Phospholipase D1) was 0.007 µM (active) and the IC50 (Phospholipase D2) was 2.8 µM (active).
In the case of `C[C@@H](CN1CC=C(n2c(=O)[nH]c3ccccc32)CC1)NC(=O)[C@H]1C[C@@H]1c1ccccc1`, the IC50 (Phospholipase D1) is reported as 0.48 µM (active) and the IC50 (Phospholipase D2) is reported as 20 µM (active).
In the case of `CC1CC2=C(CC1/C=N/NC(N)=S)C(C)(C)CCC2` (stereo not given), the CC50 [13] is reported as 20.9 µM (active), the EC50 (Beta-galactosidase) is reported as > 40 µM (inactive) and the IC50 [14] is reported as 22.6 µM (not active).
